Data from patent US20080194585A1, “Fungicidal Pyrazine Derivatives” (priority 2005, published 2008).
Marks after values point to notes of the source that are not given here.

Tests used:
[1] = tested on: Puccinia recondita f. sp. tritici; test: Test K: wheat leaf rust, preventive spray on wheat seedlings
[2] = tested on: Erysiphe graminis f. sp. tritici; test: Test L: wheat powdery mildew, preventive spray on wheat seedlings
[3] = tested on: Rhizoctonia oryzae; test: Test G: turf brown patch, preventive spray on creeping bent grass seedlings
Description: (the causal agent of turf brown patch) and incubated in a saturated atmosphere at 27° C. for 24 h, and then moved to a growth chamber at 27° C. for 5 days, after which disease ratings were made.

[4] = tested on: Colletotrichum orbiculare; test: Test B: cucumber Colletotrichum anthracnose, preventive spray on cucumber seedlings
[5] = tested on: Septoria nodorum; test: Test H: wheat glum blotch, preventive spray on wheat seedlings
Description: (the causal agent of wheat glum blotch) and incubated in a saturated atmosphere at 20° C. for 48 h, and then moved to a growth chamber at 22° C. for 5 days, after which disease ratings were made.

[6] = tested on: Plasmopara viticola; test: Test D: grape downy mildew, spray after inoculation of grape seedlings; format: in vivo
Description: Upon removal, disease ratings were made. […] A dash (-) indicates no test results.

[7] = tested on: Botrytis cinerea; test: Test E: tomato botrytis, preventive spray on tomato seedlings
[8] = tested on: Pythium aphanidermatum; test: Test A: bluegrass pythium blight, preventive spray on bluegrass seedlings
[9] = tested on: Phytophthora infestans; test: whole plant or invertebrate; format: in vivo
[10] = tested on: fusarium graminearium; test: Test I: wheat head scab, preventive spray on wheat seedlings
Description: (the causal agent of wheat head scab) and incubated in a saturated atmosphere at 20° C. for 72 h, and then moved to a growth chamber at 22° C. for 5 days, after which disease ratings were made.

[11] = tested on: Septoria tritici; test: Test J: wheat leaf blotch, preventive spray on wheat seedlings; format: in vivo
Description: A dash (-) indicates no test results.

[12] = 40 ppm (marked *), 100 = 100% disease control, 0 = no control

Row | Compound | Test K disease control rating ([1]; 40 ppm (*)) | Test L disease control rating ([2]; 40 ppm (*)) | Test G disease control rating ([3]; 40 ppm (*)) | Test B disease control rating ([4]; 40 ppm (*)) | Test H disease control rating ([5]; 40 ppm (*)) | Test D disease control rating ([6]; 40 ppm (*)) | Test E disease control rating ([7]; 40 ppm (*)) | Test A disease control rating ([8]; 40 ppm (*)) | Test F disease control rating ([9]; 40 ppm (*)) | Test I disease control rating ([10]; 40 ppm (*)) | Test J disease control rating ([11]; 40 ppm (*)) | Test K disease control rating [1, 12] | Test L disease control rating [2, 12] | Test G disease control rating [3, 12] | Test B disease control rating [4, 12] | Test H disease control rating [5, 12] | Test D disease control rating [6, 12] | Test E disease control rating [7, 12] | Test A disease control rating [8, 12] | Test F disease control rating [9, 12] | also measured
1 | CC(C)Cn1c(-c2ccccc2Br)c(Cl)nc(-n2cncn2)c1=O [compound 194] | 92* % | 0* % | 0* % | 0* % | 0* % | 0* % | 95* % | 0* % | 0* % | 0* % | 88* % |  |  |  |  |  |  |  |  |  | 
2 | CC(C)Cn1c(-c2ccccc2Br)c(Cl)nc(-n2cccn2)c1=O [compound 195] | 100* % | 0* % | 47* % | 26* % | 87* % | 0* % | 99* % | 0* % | 0* % | 0* % | 100* % |  |  |  |  |  |  |  |  |  | 
3 | CCc1ccccc1-c1c(Cl)nc(-n2cncn2)c(=O)n1CC(C)C [compound 196] | 0* % | 0* % | 0* % | 0* % | 0* % | 0* % | 0* % | 0* % | 0* % | 44* % | 0* % |  |  |  |  |  |  |  |  |  | 
4 | CCc1ccccc1-c1c(Cl)nc(-n2cccn2)c(=O)n1CC(C)C [compound 197] | 0* % | 0* % | 16* % | 0* % | 0* % | 0* % | 41* % | 0* % | 0* % | 0* % | 23* % |  |  |  |  |  |  |  |  |  | 
5 | CC[C@H](C)Cn1c(-c2ccc(F)cc2Cl)c(Cl)nc(-n2ccc(C)n2)c1=O [compound 262] |  |  |  |  |  |  |  |  |  |  |  | 100* % | 99* % | 76* % | 100* % | 100* % | 17* % | 100* % | 0* % | 39* % | Test I disease control rating [10, 12]: 0* %; Test J disease control rating [11, 12]: 100* %
6 | CC[C@H](C)Cn1c(-c2ccc(F)cc2Cl)c(Cl)nc(-n2cccn2)c1=O [compound 263] |  |  |  |  |  |  |  |  |  |  |  | 100* % | 98* % | 84* % | 100* % | 100* % | 0* % | 100* % | 0* % | 68* % | Test I disease control rating [10, 12]: 0* %; Test J disease control rating [11, 12]: 100* %
7 | CC[C@H](C)Cn1c(-c2ccc(F)cc2Cl)c(Cl)nc(N2CCC=N2)c1=O [compound 264] |  |  |  |  |  |  |  |  |  |  |  | 91* % | 83* % | 0* % | 81* % | 0* % | 0* % | 99* % | 0* % | 80* % | Test I disease control rating [10, 12]: 0* %; Test J disease control rating [11, 12]: 100* %
